These are literature values, as cited in US20040185009A1, “Composition and device for treating periodontal diseases” (DEXCEL PHARMA TECHNOLOGIES LTD., priority 2003, published 2004).

The structures appear in SMILES notation.

Series [1] has as its system periodontal disease. The note with it: 100 mg/day for two months.
Series [2] deals with periodontal disease. The note with it: 24 months, FBP-treated patient group.

For `CC(C(=O)O)c1ccc(-c2ccccc2)c(F)c1` (centres unmarked) [FBP, Flurbiprofen], the “Effect on bone metabolism (standardized radiography, radiopharmaceutical uptake)” value in series [1] is “increased bone metabolism”. The “Effect on bone loss” value in series [2] was “reduction in bone loss”.
